30 compounds from ChEMBL document CHEMBL5608113, “Targeting of CAF-induced therapy resistance in CRC organoid-stroma co-cultures” (2024) can be followed below.

The viability is a read-out of living cells in per cent, often relative to untreated cells.

What all share (assay type): functional, Homo sapiens
Holding throughout (settings): Homo sapiens, read-out: Cell Viability; for viability at 10 µM: Concentration 10 uM; for viability at 1 µM: Concentration 1 uM

The subject of experiment [1] is Colon cancer organoid. Briefly: Targeting of F14 CAF-induced therapy resistance in O23 CRC organoid-stroma co-culture. Cell viability is reported with SN-38.
For experiment [2], the system named is Colon cancer organoid. Briefly: Targeting of F14 CAF-induced therapy resistance in O23 CRC organoid-stroma co-culture. Cell viability is reported with Gefitinib.
Experiment [3] concerns Colon cancer organoid. Briefly: Targeting of F14 CAF-induced therapy resistance in O23 CRC organoid-stroma co-culture. Cell viability is reported without Gefitinib.
For experiment [4], the system named is Colon cancer organoid. Briefly: Targeting of F14 CAF-induced therapy resistance in O14 CRC organoid-stroma co-culture. Cell viability is reported without Gefitinib.
Experiment [5] deals with Colon cancer organoid. Briefly: Targeting of F14 CAF-induced therapy resistance in O14 CRC organoid-stroma co-culture. Cell viability is reported with Gefitinib.

As to `Cc1c(NC(=O)c2ccc(C(C)(C)C)cc2)cccc1-c1cn(C)c(=O)c(Nc2ccc(C(=O)N3CCOCC3)cc2)n1`, the viability at 10 µM in experiment [1] stood at 56.9%; in experiment [2], 54%; in experiment [3], 56.1%; in experiment [4], 82.5%; in experiment [5] it was 23.8%.

As to `COc1cc(Nc2nccc(-c3cnn4nc(OC)ccc34)n2)cc(C(F)(F)F)c1`, the viability at 10 µM in experiment [1] is 23.6%; in experiment [2] it was 19.5%; in experiment [3], 53.3%; in experiment [4], 3.97%; in experiment [5], 3.12%.

Take `O=C(O)CNC(=O)c1c(O)c2ccccc2n(Cc2ccccc2)c1=O`: the viability at 10 µM in experiment [1] was determined as 95.1%; in experiment [2] it was 67.5%; in experiment [3], 167%; in experiment [4], 103%; in experiment [5], 80.4%.

On to `CCN(C(=O)CO)[C@H]1CN(/C(=N\C#N)Nc2cccc(OC(F)F)c2)N=C1c1ccc(Cl)c(Cl)c1`, for which the viability at 10 µM in experiment [1] was 115%; in experiment [2], 54.9%; in experiment [3] it was 84%; in experiment [4], 125%; in experiment [5], 62.2%.

On to `Cn1c(=O)[nH]c2cc(N3C(=O)c4cccc5c(CCCO)ccc(c45)C3=O)ccc21`, for which the viability at 10 µM in experiment [1] was found to be 69.9%; in experiment [2], 52.8%; in experiment [3] it was 132%; in experiment [4], 92.6%; in experiment [5], 42.4%.

On to `CCCCNNC(=O)c1ccc(Br)cc1`, for which the viability at 10 µM in experiment [1] stood at 75%; in experiment [2] it was 53.8%; in experiment [3], 151%; in experiment [4], 85.9%; in experiment [5] it was 44.9%.

Turning to `CC1(C)C(N)=Nc2cc(OCCCN3Cc4ccc(OCCc5cn(CC(=O)N6CCC(CCN7CCCC7)CC6)nn5)cc4C3)c(OCC3CC3)cc21`, the viability at 10 µM in experiment [1] was 7.1%; in experiment [2], 9.03%; in experiment [3], 11.8%; in experiment [4], 111%; in experiment [5], 68.9%.

On to `CC1(C)C(N)=Nc2cc(OCCCCN3Cc4ccc(OCc5cn(CC(=O)N6CCC(CCN7CCCC7)CC6)nn5)cc4C3)c(OCC3CC3)cc21`, for which the viability at 10 µM was found to be 78.3% in experiment [1]; 44% in experiment [2]; 86.3% in experiment [3]; 107% in experiment [4]; 45.4% in experiment [5].

With `COc1cc(N(C)c2ccnc3ccc(C(F)(F)F)cc23)cc(OC)c1OC`, the viability at 10 µM in experiment [1] came out at 64.7%; in experiment [2] it was 69.7%; in experiment [3] it was 135%; in experiment [4], 109%; in experiment [5], 50.1%.

For `CC(C)(O)[C@H](F)CN1Cc2cc(NC(=O)c3cnn4cccnc34)c(N3CCOCC3)cc2C1=O`, the viability at 10 µM in experiment [1] stood at 51.5%; in experiment [2], 38.7%; in experiment [3], 85.8%; in experiment [4], 129%; in experiment [5] it was 23.3%.

Take `COc1ccccc1-c1cc(N2CCN(C(=O)OC(C)(C)C)CC2)c(N)nn1`: the viability at 10 µM in experiment [1] came out at 35.8%; in experiment [2], 37.8%; in experiment [3] it was 49.4%; in experiment [4] it was 101%; in experiment [5], 53.4%.

Regarding `CN(C(=O)c1cnn2cccnc12)c1cc2c(cc1N1CCOCC1)C(=O)N(C[C@@H](F)C(C)(C)O)C2`, the viability at 10 µM in experiment [1] turned out to be 61.8%; in experiment [2], 39.2%; in experiment [3] it was 92.3%; in experiment [4], 139%; in experiment [5], 38.6%.

As to `c1ccc(C2CCN(c3cnc4c(N5CCOCC5)nccn34)CC2)cc1`, the viability at 10 µM in experiment [1] stood at 108%; in experiment [2], 136%; in experiment [3] it was 207%; in experiment [4] it was 81.3%; in experiment [5], 78.2%.

For `CCOc1ccc(S(=O)(=O)Nc2ccc(Cl)cc2C#Cc2cnc(C(=O)O)cc2OC)c2ncccc12`, the viability at 10 µM in experiment [1] was found to be 77.6%; in experiment [2], 46.2%; in experiment [3] it was 95.3%; in experiment [4] it was 102%; in experiment [5], 42.8%.

With `Cc1cc(CN)cc(C)c1-c1ncn(C)c1-c1ccnc2cc(F)ccc12`, the viability at 10 µM in experiment [1] was 86.8%; in experiment [2], 53.8%; in experiment [3], 122%; in experiment [4], 90.5%; in experiment [5], 63.2%.

For `CC1=CC(C)=[N+]2C1=C(CCCCc1cn(CC(=O)N3CCc4nc(NC(=O)[C@H]5CCN(C#N)C5)sc4C3)nn1)c1c(C)cc(C)n1[B-]2(F)F`, the viability at 10 µM is 52.6% in experiment [1]; 36.4% in experiment [2]; 101% in experiment [3]; 115% in experiment [4]; 31.6% in experiment [5].

As for `COc1cc(OC)cc(-c2noc(N3CCN(C)C4(CCN(c5ccccc5)CC4)C3)n2)c1`, the viability at 10 µM came to 81.3% in experiment [1]; 65.9% in experiment [2]; 104% in experiment [3]; 114% in experiment [4]; 46.8% in experiment [5].

Take `N#CN1CC[C@H](C(=O)Nc2nc3c(s2)CN(C(=O)CN=[N+]=[N-])CC3)C1` [8RK64]: the viability at 10 µM in experiment [1] was found to be 40.9%; in experiment [2], 43.1%; in experiment [3] it was 108%; in experiment [4], 105%; in experiment [5] it was 33.4%.

For `CN(C)[C@@H]1CCN(c2cc(-c3ccccc3)nc3ccnn23)C1` [(R)-ZINC-3573], the viability at 10 µM in experiment [1] turned out to be 70.6%; in experiment [2], 61.7%; in experiment [3] it was 130%; in experiment [4], 68.2%; in experiment [5], 30.9%.

Take `CN(C)[C@H]1CCN(c2cc(-c3ccccc3)nc3ccnn23)C1` [(S)-ZINC-3573]: the viability at 10 µM turned out to be 49.3% in experiment [1]; 55.6% in experiment [2]; 98.9% in experiment [3]; 68.9% in experiment [4]; 33.4% in experiment [5].

With `Cn1cncc1[C@@](O)(COc1ccc(C#N)cc1-c1ccc(OC(F)(F)F)cc1)c1ccc(C#N)cc1` [A-108], the viability at 10 µM stood at 112% in experiment [1]; 69.3% in experiment [2]; 131% in experiment [3]; 108% in experiment [4]; 47.8% in experiment [5].

Consider `CCC(=N\O)/C(C)=C/c1ccc(F)c(C)c1` [A-226], for which the viability at 10 µM is 93.1% in experiment [1]; 49.8% in experiment [2]; 97.1% in experiment [3]; 119% in experiment [4]; 62.5% in experiment [5].

On to `CNC(=O)Nc1ccc2c(c1)CC[C@@]21OC(=O)N(CC(=O)N(Cc2ccc(F)cc2)[C@@H](C)C(F)(F)F)C1=O` [A-485], for which the viability at 1 µM is 51% in experiment [1]; 34.6% in experiment [2]; 60.4% in experiment [3]; 65.4% in experiment [4]; 23.9% in experiment [5].

On to `CNC(=O)Nc1ccc2c(c1)[C@@]1(CC2)OC(=O)N(CC(=O)N(Cc2ccc(F)cc2)[C@@H](C)C(F)(F)F)C1=O` [A-486], for which the viability at 1 µM turned out to be 69.7% in experiment [1]; 47.9% in experiment [2]; 92.2% in experiment [3]; 90.8% in experiment [4]; 50% in experiment [5].

Turning to `CCCCN(CCCC)C(=O)CN1C[C@@H](c2cc(OC)c3c(c2)OCO3)[C@H](C(=O)O)[C@H]1CC(C)(C)CCC` [A-545], the viability at 10 µM turned out to be 88.5% in experiment [1]; 47% in experiment [2]; 142% in experiment [3]; 83.6% in experiment [4]; 61.5% in experiment [5].

On to `CSc1cccnc1N1CCN(Cc2nc3ccccc3[nH]2)CC1` [A-769], for which the viability at 10 µM in experiment [1] is 103%; in experiment [2], 59%; in experiment [3], 111%; in experiment [4], 73.4%; in experiment [5], 36.4%.

For `CCCOc1ccc([C@H]2[C@H](C(=O)O)[C@@H](c3ccc4c(c3)OCO4)CN2CC(=O)Nc2c(CC)cccc2CC)cc1` [A-192621], the viability at 1 µM came to 50% in experiment [1]; 48.1% in experiment [2]; 112% in experiment [3]; 117% in experiment [4]; 27.4% in experiment [5].

With `CN(C)CC#Cc1ccc(OCCCc2sc(N3CCc4cccc(C(=O)Nc5nc6ccccc6s5)c4C3)nc2C(=O)O)c(F)c1` [A-1155463], the viability at 10 µM in experiment [1] was 0.449%; in experiment [2] it was 2.66%; in experiment [3], 5.72%; in experiment [4], 61.6%; in experiment [5] it was 21.1%.

`CO[C@H]1CC[C@H](CNc2ccc(S(=O)(=O)NC(=O)c3ccc(N4CCN(CC5=C(c6ccc(Cl)cc6)CC(C)(C)CC5)CC4)cc3Oc3cnc4[nH]ccc4c3)cc2[N+](=O)[O-])CC1` [A-1211212]: the viability at 10 µM in experiment [1] came out at 32.3%; in experiment [2] it was 30.6%; in experiment [3] it was 83.3%; in experiment [4], 40.4%; in experiment [5], 25%.

With `COc1ccc2c(c1)O[C@H](c1ccc(OC)c(OC)c1)C[C@@H]2NC(=O)C1(c2ccc3c(c2)OC(F)(F)O3)CC1` [A-1596584], the viability at 10 µM in experiment [1] came to 59.1%; in experiment [2], 48.5%; in experiment [3], 111%; in experiment [4], 74.5%; in experiment [5], 48.4%.
